Data set [1] is described as follows: PAMPA BBB permeability. Conditions: for Papp at 4 h, 50 μM: PAMPA, pH 7.4, 50 μM. Type of data set: in vitro ADME. Here is the method:
A parallel artificial membrane permeability assay (PAMPA)^70 was performed to validate the blood-brain barrier permeability of KDS12025. The procedure began by preparing a donor solution of the compound in a pH 7.4 donor buffer. This solution was added to the wells of a deep well plate, followed by the addition of a high-sensitivity UV plate filled with donor buffer to serve as the blank sample. An initial sample for the UV plate was taken to establish a baseline reading. The PAMPA sandwich was then assembled by adding the donor plate mixture to the donor plate well, followed by placing a BBB-lipid coated membrane on top and an acceptor plate filled with acceptor buffer. This setup was incubated at 25 °C for a specific duration to allow diffusion. Post-incubation, a sample from the acceptor plate was taken, and the UV absorbance was measured to determine the permeated amount of the test compound. The permeability was then calculated using the PAMPA explorer program, considering the initial donor concentration and the acceptor's concentration after incubation.

Data set [2] addresses T1, Hb (Homo sapiens, UniProt P68871).
T1 construct: purchased Sigma-Aldrich H7379
As to the kind of experiment: Bubbling liberation (oxygen release) with Hb. Type of data set: biochemical. Conditions: Hb + H2O2, Fig. 2g. The method, then:
The effects of bubbling with DMSO, HTPEB, and KDS12025 were evaluated. To measure the degree of bubbling quantitatively, the reactions were conducted in sealed tubes connected to an inverted cylinder submerged in a water bath to record the time and volume of the bubbles produced. […] Vehicle, HTPEB, and KDS12025 were added to assess their effects. A similar procedure was followed for Hb.

Data set [3] in a line: Solubility in aqueous solutions (statement). Type of data set: physicochemical.
In data set [4] the target is T2, purified human Hb (Homo sapiens, UniProt P68871).
T2 construct: purchased MP Biomedical 55914
As to the kind of experiment: ITC binding affinity assay. Conditions: Hb+KDS12025, without H2O2. Here is the method:
All ITC experiments were conducted via a MicroCal AutoiTC200 (Malvern Panalytical) at the Korea Basic Science Institute (Ochang, Korea). Binding affinity was measured via the addition of 40 µl of 5 mM KDS12025 (ligand) and 200 µl of 200 μM purified human Hb (protein) (MP Biomedical, 55914) in sodium phosphate buffer (pH 7.2). For each titration experiment, 2 µl of KDS12025 was injected into purified human Hb for 4 s at intervals of 180 s at 25 °C. Overall, 19 injections were performed for each experiment, and the data were analyzed via MicroCal Origin 8.0 software.

In data set [5] the test system is A53T mice. Briefly: Immunohistochemistry of SNpc, A53T mice. Conditions: for mean GABA intensity in GFAP-positive areas: Fig. 4k; for TH-positive neuron counts per hemisphere: Fig. 4l. Type of data set: in vivo, mouse. Here is the method: Stereotaxic injections were performed to deliver the AAV-CMV-A53T virus or PBS (control) into the right SNpc (AP, −3.2 mm; ML, −1.3 mm; DV, −4.0 mm from the bregma) of the mice. The injections were administered at a rate of 0.2 μl/min, with a total volume of 1 μl. The procedure was conducted under general anesthesia induced by 1% isoflurane.
The mice were deeply anesthetized with 2% isoflurane and positioned on the operating table. After the abdomen was opened and the heart was exposed, the […] were perfused with saline, followed by 4% paraformaldehyde (PFA) in 0.1 M PBS. The mice were decapitated, and the brains were excised from the skull. Excised brains were postfixed in 4% PFA overnight at 4 °C and dehydrated in 30% sucrose for 48 h. Coronal hippocampal sections were cut at 30 µm thickness with a cryostat and stored in storage solution. For the ALS experiments, lumbar spinal cords (L2–L5) were also carefully dissected and immediately immersed in 4% PFA for postfixation. The sections were fully washed in 0.1 M PBS and incubated for 1 h in blocking solution (0.3% Triton X-100, 2% donkey and goat serum in 0.1 M PBS). Next, a mixture of primary antibodies in the blocking solution was used for immunostaining on a shaker overnight at 4 °C. The sections were washed in PBS three times. After washing, the sections were incubated with the corresponding fluorescent secondary antibodies for 1 h at RT. DAPI staining was performed by adding a DAPI solution (1:2000) during the second washing step. After the washing step was complete, the sections were mounted on cover slides with mounting medium. A series of fluorescence images were obtained with an LSM900 (Zeiss, Germany) confocal microscope or Lattice SIM Elyra 7 (Zeiss, Germany). The 15–22 μm Z stack images in 1–2 μm steps were processed for image analysis, which was performed via the ImageJ (NIH, US) and ZEN digital imaging for light microscopy blue system (Zeiss, Germany) programs. The primary antibodies used were as follows: chicken anti-GFAP (1:500, Millipore, ab5541), rabbit anti-amyloid beta (1:500, Abcam, ab2539), mouse anti-NeuN (1:200, Millipore, ab377), rabbit anti-Hbβ (1:200, Abcam, ab214049), mouse anti-Hbβ (1:200, Santacruz, sc-21757), mouse anti-MAOB (1:200, Santacruz, sc-515354), mouse anti-8-OhdG (1:500, Santacruz, sc-393871), rabbit anti-TH (1:500, Pelfreez, p40101), and mouse anti-TH (1:200, Sigma, T2928). The following secondary antibodies from Jackson were diluted (1:500) in blocking solution: donkey-anti-chicken 405, donkey-anti-chicken 647, donkey-anti-rabbit 488, donkey-anti-rabbit 594, donkey-anti-rabbit 647, donkey-anti-guinea pig 488, donkey-anti-guinea pig 647, donkey-anti-mouse 594, and donkey-anti-mouse 647. Serial confocal sections immunolabeled with GFAP were compiled into a maximal projection to assess the GFAP signal within the hippocampus (Z-stacked images, 15–22 μm Z stack images in 1–2 μm steps of brain sections). Sholl analysis, performed via the ImageJ plugin, automatically generated concentric circles with 10-μm spacing from the nucleus (soma) to the farthest astrocytic process. This analysis quantified the intersections of GFAP-labeled processes within each circle, calculating the ramification index and ending radius, enabling the evaluation of astrocytic hypertrophy and morphological changes, as previously described.[78] In the focal GiD mouse model, NeuN-positive CA1 pyramidal neurons were quantified within a 50 × 50 μm^2 region via ImageJ to determine the number of CA1 pyramidal neurons.
For the SNpc, astrocytes and dopaminergic neurons were analyzed separately. The SNpc region was manually reconstructed using anatomical landmarks and TH or GFAP signals. GFAP-positive astrocyte surfaces were reconstructed with surface details set to 0.6 μm, the diameter of the largest sphere at 2.0 μm, a manual threshold value minimum of 800, and diffusion transparency set to 60%. […]

Where [6] appears, read: read-out: BCS code: permeability classification.

Where two headings read alike, the source gives them in different places.

T1 sequence (P68871 2-147 limits assumed): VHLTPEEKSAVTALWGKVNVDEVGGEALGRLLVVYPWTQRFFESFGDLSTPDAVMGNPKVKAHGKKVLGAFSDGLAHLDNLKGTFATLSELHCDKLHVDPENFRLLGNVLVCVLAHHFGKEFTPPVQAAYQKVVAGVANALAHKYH
T1 sequence (P69905 2-142 partner limits assumed): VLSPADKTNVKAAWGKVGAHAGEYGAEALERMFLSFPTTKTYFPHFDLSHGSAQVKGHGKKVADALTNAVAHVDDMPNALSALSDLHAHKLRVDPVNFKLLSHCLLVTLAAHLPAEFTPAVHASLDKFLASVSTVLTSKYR
T2 sequence (P68871 2-147 limits assumed): as the sequence (P68871 2-147 limits assumed) above
T2 sequence (P69905 2-142 partner limits assumed): as the sequence (P69905 2-142 partner limits assumed) above

As to `O=C(O)c1cc(NCCc2ccc(C(F)(F)F)cc2)ccc1O` [HTPEB, 2-hydroxy-5-[2-(4-trifluoromethyl-phenyl)-ethylamino]-benzoic acid, reference compound], in data set [1] (50 μM, 4 h), the “BCS code: CNS +/- classification” value is given as “- (< 10)”. Moreover, the “Pe (PAMPA BBB permeability)” value in data set [1] (50 μM, 4 h, U.V) is 3.56 10^-6cm/sec. Moreover, the Papp at 4 h, 50 μM in data set [1] (setting [6]) was above 0.4 ×10⁻⁶ cm/s. Moreover, the “bubbles per 1 × 1 mm^2 area” value in data set [2] came out at 12.5±3.969. Moreover, the “solubility in water / aqueous solutions” value in data set [3] is reported as “poor”.

Turning to `CNc1ccc(NCCc2ccccc2OC)cc1.Cl` [KDS12025, N^1-(2-methoxyphenethyl)-N^4-methylbenzene-1,4-diamine hydrochloride salt], the “BCS code: CNS +/- classification” value in data set [1] (50 μM, 4 h) is reported as “+ (> 10)”. In addition, the Papp at 4 h, 50 μM in data set [1] (U.V, read-out: Pe (PAMPA BBB permeability)) is 67.4 ×10⁻⁶ cm/s; in data set [1] (setting [6]) it was above 0.4 ×10⁻⁶ cm/s. The “ΔG (ITC)” value in data set [4] is -7.53 kcal/mol. Also, in data set [4], the “ΔH (ITC)” value is -580 kcal/mol. Further, the “bubbles per 1 × 1 mm^2 area” value in data set [2] turned out to be 13.5±2.533. For the same molecule, in data set [3], the “solubility in water / aqueous solutions” value is recorded as “highly water soluble”. Besides, the “mean intensity of Hbβ in GFAP-positive areas” value came to 46.92±4.141 in data set [5] (A53T contra+KDS12025, Fig. 5p) and 34.98±2.564 in data set [5] (A53T ipsi+KDS12025, Fig. 5p). For the same molecule, the “mean intensity of Hbβ in TH-positive areas” value in data set [5] (A53T contra+KDS12025, Fig. 5q) is recorded as 61.58±2.401; in data set [5] (A53T ipsi+KDS12025, Fig. 5q), 55.65±3.378. For the same molecule, the “mean intensity of GFAP in GFAP-positive area” value in data set [5] (A53T contra+KDS12025, Fig. S12c) amounted to 82.69±4.999; in data set [5] (A53T ipsi+KDS12025, Fig. S12c), 106.7±3.202. Further, the “GFAP-positive area in the SNpc” value is recorded as 25.28±2.892 in data set [5] (A53T contra+KDS, Fig. 4j); 34.18±3.214 in data set [5] (A53T ipsi+KDS, Fig. 4j); 37.16±3.6 in data set [5] (A53T+shHbβ::CaMKII+KDS12025, Fig. 6r); 42.7±5.05 in data set [5] (A53T+shHbβ::GFAP+KDS12025, Fig. 6r). Further, the entries for the “mean GABA intensity in GFAP-positive areas” value in data set [5] (A53T contra+KDS) and in data set [5] (A53T ipsi+KDS) were 10.18±1.460 and 5.531±0.9318, respectively. For the same molecule, the “TH-positive neuron counts per hemisphere” value in data set [5] (A53T contra+KDS) is reported as 23.20±2.685; in data set [5] (A53T ipsi+KDS), 20.96±2.68. In addition, the “number of TH-positive neurons per hemisphere” value stood at 18.5±1.3 in data set [5] (A53T+shHbβ::CaMKII+KDS12025, Fig. 6s) and 16.75±2.75 in data set [5] (A53T+shHbβ::GFAP+KDS12025, Fig. 6s).
